Test results: patent US20020106657A1, “Genetic test to determine non-responsiveness to statin drug treatment” (priority 1999, published 2002)
“And” between values parts separate entries of the source, which are not always exact repeats. Equal values may be shown once. Read-outs that look alike come from different tables or passages of the source.

Assays:
[1] = tested on: CABG patients (saphenous-vein coronary-artery bypass grafts); experiment: Post-CABG Trial: angiographic graft worsening under lovastatin (aggressive vs moderate) and warfarin; format: in vivo, human
Method: A genetic association study was conducted by a within-case comparison ancillary to the Post Coronary Artery Bypass Graft Trial. (The Post Coronary Artery Bypass Graft Trial Investigators. The effect of aggressive lowering of low-density lipoprotein cholesterol levels and low-dose anticoagulation on obstructive changes in saphenous-vein coronary-artery bypass grafts, N. Engl. J. Med. 336:153-62 [1997]). A two stage design was followed. First, EBV-transformed lymphoblastoid cell lines were established for subjects from the Los Angeles (L.A.) cohort providing a permanent source of DNA for testing hypotheses related to atherosclerosis-related candidate genes. Then, significant results were tested in a second stage by genotyping all available subjects in the post-CABG trial using DNA isolated from whole blood shipped to Cedars-Sinai Medical Center from the other participating centers.
(§1) Participants were randomly assigned, following a two by two design, to receive 1) lovastatin therapy to lower the LDL-cholesterol level to within the range of 93-97 mg/dl (aggressive treatment group) or 132-136 mg/dl (moderate treatment group), and 2) placebo or low-dose warfarin (Post-CABG, 1997). Coronary angiograms of 1351 subjects at enrollment and an average of 4.3 years later were compared using a quantitative assessment of the severity of graft stenosis. Graft worsening was defined as a decrease in lumen diameter of 0.6mm or more. The percentage of subjects with worsening of one or more grafts was 39% in the aggressive treatment group compared to 51% in the moderate treatment group (p<0.00 1) and the mean percentage of grafts per patient showing worsening was 27% in the aggressive treatment group compared to 39% in the moderate treatment group (p<0.001).
(§2) A total of 1351 subjects from seven clinical centers throughout North America were included in the clinical trial and all were eligible as participants. Genetic material was received from 891 subjects who were included in this ancillary study. Inclusion criteria for the clinical trial were: bypass surgery 1 -11 years prior to the study; an LDL-cholesterol level of 130-175 mg/dl; and at least one patent vein graft as determined by angiography. Subjects were excluded if there was: (a) the likelihood of revascularization or death within the study period of 5 years; (b) unstable angina or myocardial infarction within six months before the start of the trial; (c) severe angina; (d) heart failure; or (e) contraindications to the study medications. Id. Subjects were randomly assigned in a two by two factorial design for treatment to lower LDL-cholesterol levels aggressively (target LDL 93-97 mg/dl) or moderately (target LDL 132-136 mg/dl) with lovastatin and cholestyramine if needed, and for treatment with either placebo or warfarin sufficient to maintain an international normalized ratio of less than 2. Id. Graft worsening was determined by comparing the initial angiogram at enrollment with a follow-up angiogram repeated an average of 4.3 years later. “Worsening” was defined as a reduction in diameter ≧0.6mm in diameter. “Subjects with worsening” were defined as those subjects with one or more grafts showing worsening.
Differences in baseline characteristics between treatment groups and between genotype groups were tested by one-way analysis of variance or Chi-square tests. Log-transformed HDL and TG values were used to perform all statistical analyses in order to adjust for their skewed distributions, but are presented in the tables as untransformed means ±SE. The association between graft worsening and LPL genotype was tested by Chi-square test. Mantel-Haenszel statistics were used for testing the interactions between genotypes and treatment groups. The proportion of grafts showing worsening per subject was used as the quantitative measurement of graft worsening, and multiple regression was performed to for this proportion as a function of genotype and treatment group to identify predictors. […]

CABG patients = experiment: Post-CABG Trial: serum lipid levels and lovastatin dose needed, by treatment group or LPL HindIII genotype; format: in vivo, human
Method: as §1, §2
Differences in baseline characteristics between treatment groups and between genotype groups were tested by one-way analysis of variance or Chi-square tests. Log-transformed HDL and TG values were used to perform all statistical analyses in order to adjust for their skewed distributions, but are presented in the tables as untransformed means ±SE. The association between graft worsening and LPL genotype was tested by Chi-square test. Mantel-Haenszel statistics were used for testing the interactions between genotypes and treatment groups. The proportion of grafts showing worsening per subject was used as the quantitative measurement of graft worsening, and multiple regression was performed to for this proportion as a function of genotype and treatment group to identify predictors. Adjusted variables for this trait included age, gender, body mass index, smoking status, number of years since CABG, systolic and diastolic blood pressure, current medicine use, and family history as listed in Table 1. All statistical analyses were carried out with SAS software (version 6.12, SAS Institute, Cary, N.C.).
To investigate potential mechanisms for the association between the LPL HindIII 2/2 genotype and graft worsening, baseline characteristics and response of the subjects to the lipid-lowering action of lovastatin were compared between subjects (Table 3). There were no differences observed between the baseline values for total cholesterol, HDL-cholesterol, and triglycerides. However, a small difference in LDL-cholesterol was observed, 159.6±2.1 mg/dl for subjects with HindIII 2/2 compared with 155.0±0.7 for 1/1 and 1/2, p=0.04. […]

[2] = tested on: CABG patients (saphenous-vein coronary-artery bypass grafts); settings: cited from earlier work; for percentage of subjects with worsening of one or more grafts: 1351 subjects, average 4.3 years
[3] = Aggressive treatment group (N = 430), mean ± SE
[4] = LPL HindIII 1/1 & 1/2 genotype (N = 817)
[5] = LPL HindIII 2/2 genotype (N = 74)
[6] = Moderate treatment group (N = 406), mean ± SE

## CC[C@H](C)C(=O)O[C@H]1C[C@@H](C)C=C2C=C[C@H](C)[C@H](CC[C@@H]3C[C@@H](O)CC(=O)O3)[C@H]21 [lovastatin]
[1]; HindIII 1/1 and 1/2 genotype, moderate drug treatment group
  percent of subjects with graft worsening: 49%
[1]; HindIII 1/1 or 1/2 genotype, aggressive lipid-lowering treatment group
  percent of subjects with graft worsening: 35%
[1]; HindIII 2/2 genotype, aggressive treatment group
  percent of subjects with graft worsening: 54%
[1]; HindIII 2/2 genotype, moderate lipid-lowering treatment group
  percent of subjects with graft worsening: 65%
[1]; HindIII 2/2 plus moderate lipid-lowering, 95% CI 1.4-8.7
  odds ratio for graft worsening, combined unfavorable LPL HindIII genotype with moderate drug treatment: 3.5
[1]; adjusted for / stratified by LPL HindIII genotype, 95% CI 1.32-2.4
  odds ratio, effect of treatment on graft worsening: 1.78 and 1.8
[1]; within LPL HindIII 1/1 and 1/2 genotype group, 95% CI 1.3 to 2.4
  odds ratio for graft worsening, moderate vs aggressive drug treatment: 1.8
CABG patients; [3]
  Steady state lipid levels: HDL cholesterol: 44.9 ± 0.6 mg/dL
  Steady state lipid levels: LDL cholesterol: 97.1 ± 1.3 mg/dL
  Steady state lipid levels: Total cholesterol: 172.6 ± 1.6 mg/dL
  Steady state lipid levels: Triglycerides: 157.4 ± 4.5 mg/dL
CABG patients; [4]
  Lipid change: HDL cholesterol: 14.2 ± 1.0%
  Lipid change: LDL cholesterol: 45.1 ± 1.5%
  Lipid change: Total cholesterol: 15.2 ± 0.6%
  Lipid change: Triglycerides: 8.2 ± 2.0%
  Steady state lipid levels: HDL cholesterol: 44.1 ± 0.4 mg/dL
  Steady state lipid levels: LDL cholesterol: 114.7 ± 1.1 mg/dL
  Steady state lipid levels: Total cholesterol: 191.0 ± 1.3 mg/dL
  Steady state lipid levels: Triglycerides: 163.6 ± 3.4 mg/dL
CABG patients; [5]
  Lipid change: HDL cholesterol: 14.1 ± 3.1%
  Lipid change: LDL cholesterol: 53.5 ± 6.9%
  Lipid change: Total cholesterol: 16.9 ± 2.0%
  Lipid change: Triglycerides: 6.0 ± 5.8%
  Steady state lipid levels: HDL cholesterol: 46.7 ± 1.6 mg/dL
  Steady state lipid levels: LDL cholesterol: 115.1 ± 4.3 mg/dL
  Steady state lipid levels: Total cholesterol: 191.1 ± 4.8 mg/dL
  Steady state lipid levels: Triglycerides: 151.0 ± 9.6 mg/dL
CABG patients; [6]
  Steady state lipid levels: HDL cholesterol: 43.7 ± 0.6 mg/dL
  Steady state lipid levels: LDL cholesterol: 133.0 ± 1.3 mg/dL
  Steady state lipid levels: Total cholesterol: 209.5 ± 1.6 mg/dL
  Steady state lipid levels: Triglycerides: 164.5 ± 4.4 mg/dL
[2]; aggressive lovastatin treatment (LDL-C lowered to 93-97 mg/dl)
  percentage of patients with atherosclerotic worsening of grafts within 4 years: 39%
[2]; aggressive treatment group, worsening = lumen diameter decrease 0.6 mm or more
  percentage of subjects with worsening of one or more grafts: 39%
[2]; aggressive treatment group
  mean percentage of grafts per patient showing worsening: 27%
[2]; aggressive vs moderate lovastatin treatment group
  number of patients who required a second CABG procedure, lower than in moderate-treatment group: 29%
[2]; moderate lovastatin treatment (LDL-C lowered to 132-136 mg/dl)
  percentage of patients with atherosclerotic worsening of grafts within 4 years: 51%
[2]; moderate treatment group
  percentage of subjects with worsening of one or more grafts: 51%
  mean percentage of grafts per patient showing worsening: 39%

## CC(=O)CC(c1ccccc1)c1c(O)c2ccccc2oc1=O (stereo not drawn) [warfarin]
[2]; low-dose warfarin vs placebo
  effect of the warfarin treatment on graft worsening: No effect
